{"source": "patent US20190054117A1", "about": "“DIMERIZATION SWITCHES AND USES THEREOF” (priority 2014, published 2019)", "data": [{"target": "biotinylated FKBP in the presence of everolimus (RAD001)", "sequence (P62942 2-108 limits assumed)": "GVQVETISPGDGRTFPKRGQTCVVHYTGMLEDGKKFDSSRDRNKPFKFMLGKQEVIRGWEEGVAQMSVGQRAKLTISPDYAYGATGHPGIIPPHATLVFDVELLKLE", "test": "EC50 direct binding assay (AlphaLISA): FLAG FRB protein and biotinylated FKBP with serially diluted everolimus", "settings": "30 nM FLAG-tagged FRB, 30 nM biotinylated FKBP; everolimus serial diluted 1:3 from 600 nM", "method": "In a direct binding assay, unlabeled candidate mutant FRB is incubated in solution with tagged wild-type FKBP in the presence of the dimerization molecule, e.g., under conditions suitable for binding of FRB to the dimerization molecule and dimerization of FRB and FKBP. Tagged FKBP can be removed from the reaction by affinity purification; candidate mutant FRB that is able to bind the dimerization molecule and dimerize with the tagged FKBP will also be removed. […] EC50 values for direct binding affinity can then be calculated using methods known in the art.\nFRB mutations were also ranked in an alternative assay format. Briefly, FRB proteins incorporating single and double mutations (SEQ ID NO: 54-58) were produced as FLAG tagged constructs in E. coli as described previously. 30 nM (final) of biotinylated FKBP (SEQ ID NO: 59) and each FLAG FRB protein were combined in the presence of everolimus serial diluted 1:3 from a starting final concentration of 600 nM into a 96 well ½ surface flat-bottom plate (PerkinElmer) and incubated for one hour at room temperature. All dilutions were made in 1× AlphaLISA Immunoassay buffer (PerkinElmer). Anti-Flag acceptor beads (PerkinElmer) were added at 10 ug/ml final concentration and incubated for one hour at room temperature. Streptavidin donor beads (PerkinElmer), were then added at a final concentration of 40 ug/ml and the plate was protected from light and incubated for 30 minutes at room temperature. The plate was then read on the PerkinElmer EnVision Multiplate reader equipped with the Alpha Module using excitation of 680 nm and a 570 nm Emission filter.", "units": {"EC50": "nM"}, "values": [{"substance": "E2032I: mutant FRB derived switch domain with E2032I; His-tagged (competition) or His-FLAG-tagged (direct assay)", "EC50": 2.46}, {"substance": "E2032L: mutant FRB derived switch domain with E2032L; His-tagged (competition) or His-FLAG-tagged (direct assay)", "EC50": 2.15}, {"substance": "T2098L: mutant FRB derived switch domain with T2098L; His-tagged (competition) or His-FLAG-tagged (direct assay)", "EC50": 1.44}, {"substance": "Wild type FRB (1): wild type FRB domain of FRAP/mTOR (residues 2021-2113); His-tagged in competition assay, His-FLAG-tagged in direct assay [reference compound]", "EC50": 3.9}]}]}
